Results published in EP0310322A2, “Use of thromboxane B2 to constrict the pupil and lower intraocular pressure” (ALLERGAN, INC, priority 1987, dated 1989).

Key:
[1] = system: pupil; test: Pupil diameter after sequential intracameral injections in a sedated rabbit (Example 1); format: in vivo, New Zealand albino rabbit; conditions: for Pupil Diameter: 5 min after injection
Description: One New Zealand albino rabbit (2-4Kg) was sedated with an intramuscular injection of a 1:1 mixture of ketamine (Vetalar, Parke-Davis and xylazine (Rompum, Haver-Lockhart). The pupil diameters of both eyes were measured under standard room lighting with an optistick and recorded. The right eye was injected intracamerally with 100ng of thromboxane B₂ (12ul). The contralateral eye was injected with an equal volume of the vehicle solution, 0.05% BSA (Bovine Serum Albumin) in 0.01N CH₃COOH. Hamilton syringes with 30 gauge needles were used for the injection. Five minutes later the pupil diameters of both eyes were measured and recorded. Sequential injections of thromboxane B₂ (Sigma) were made into the right eye and an equal volume of vehicle into the left. Five minutes after each injection the pupil diameters were measured and recorded. A total of three injections of thromboxane B₂ (TXB2) were administered to the right eye; 100ng, 1ug, 10ug (12ul). After the last injection of TXB2, carbachol, 200ng (lul) was administered to both eyes, intracamerally, and the pupil diameters were measured after five minutes.

[2] = system: pupil; test: Pupil diameter after intracameral injection in flurbiprofen-pretreated sedated rabbits (Example 2); format: in vivo, New Zealand albino rabbits
Description: Seven New Zealand albino rabbits were treated, topically, with 0.03% flurbiprofen (Ocufen, Allergan) every 1/2 hour for two hours to inhibit endogenous synthesis of thromboxane. Following flurbiprofen treatment the rabbits were sedated with a 1:1 mixture of Ketamine and Rompum and the pupil diameters of both eyes were measured and recorded as before. 50ug (6ul) of TXB2 was injected intracamerally into the right eye of each rabbit and an equal volume of vehicle was administered to the left eyes. The pupil diameters were measured five minutes following the injections. This does of TXB2 was chosen because it is 1000 times the concentration of TXB2 found in clotting blood in rabbits (Ali and Mohammed, 1986). Carbachol 200ng (1ul) was injected into both eyes and the pupil diameters recorded after a five minute and a ten minute duration.
Refer to Figure 1. Next, both eyes were injected with 200ng (1ul) of carbachol.

[3] = system: pupil; test: Pupil diameter after intracameral injection in flurbiprofen-pretreated sedated cats (Example 3); format: in vivo, domestic cats; conditions: cat
Description: Fifteen male and female domestic cats were treated topically with 0.03% flurbiprofen (in both eyes) every 1/2 hours for two hours to inhibit endogenous thromboxane synthesis. The cats were sedated with 0.5 to 0.75ml of Rompum (20mg/ml) by intramuscular injection. […] The pupil diameters of both eyes were measured with an optistick and recorded. The right eye of each cat was injected intracamerally with one concentration of thromboxane B₂ ranging from a high of 500ng (10ul) to a low of 10ng (10ul). The contralateral eye was injected with an equal volume of the vehicle: saline. The pupil diameters were measured five and ten minutes after the injections. The cats were allowed to regain consciousness while in the laboratory.
Increasing concentrations of TXB2 led to greater constriction of the pupil (miosis). Maximum constriction of the pupil occurred at a dose of 500ng. The ED₅₀ was 70ng. Refer to Figure 2. […] The filled circles are the mean pupil diameters of the TXB2 treated eyes. The pupil diameters of the vehicle treated eyes are shown by the open circles.

[4] = system: pupil; test: Pupil diameter after topical drops in awake monkeys (Example 4); format: in vivo, Cebus apella monkeys; conditions: Cebus monkeys, total dose per eye 2.5 micrograms to 1 mg
Description: Eight Cebus apella monkeys were treated topically with thromboxane B₂ in one eye and normal saline in the contralateral eye. The monkeys were awake and alert and seated in primate chairs for the duration of the experiment. The thromboxane B₂ concentrations used were 0.625ug, 1.25ug, 6.25ug, 12.5ug, 62.5ug, 125.0ug and 250ug per drop. A 50ul drop was administered following the baseline pupil diameter measurement. Three more drops were given at 15 minute intervals. Total dose per eye after 4 drops ranged between 2.5 micrograms and 1 mg. Pupil diameter was measured just before each administration. The last measurement was taken at 60 minutes.
In the eight Cebus monkeys with TXB2-treated eyes, the pupil diameters decreased 0.75 to […] at 30 minutes.
The range of doses used probably represented the upper end of the dose-response curve. The 0.75 to […] pupil constriction represents a significant response in the small Cebus eye.

| Structure (SMILES) | pupil constriction ([1]; rabbit #8394, carbachol 200ng (1ul) intracameral, both eyes) | Pupil Diameter ([1]; rabbit #8394, eye OD (previously TXB2 treated), carbachol 200ng intracameral) [mm] | Pupil Diameter ([1]; rabbit #8394, eye OS (previously vehicle treated), carbachol 200ng intracameral) [mm] | Pupil Diameter ([2]; carbachol 200ng (1ul) injected into both eyes after TXB2 or vehicle, measured after 5 and 10 min) | Pupil Diameter ([1]; rabbit #8394, eye OD, TXB2 100ng intracameral (12ul), baseline 6.0) [mm] | Pupil Diameter ([1]; rabbit #8394, eye OD, second sequential TXB2 dose 1ug intracameral) [mm] | Pupil Diameter ([1]; rabbit #8394, eye OD, third sequential TXB2 dose 10ug intracameral) [mm] | changes in pupil diameter ([1]; rabbit #8394, three sequential intracameral doses 100ng, 1ug and 10ug) | ability of the pupillary sphincter to contract when stimulated by carbachol ([2]; rabbits, topical 0.03% flurbiprofen pretreatment, TXB2 50ug intracameral, then carbachol 200ng) | pupil diameters versus vehicle eyes ([2]; seven rabbits, 0.03% flurbiprofen pretreatment, 50ug (6ul) intracameral, 5 min after injection) | dose at which maximum constriction of the pupil occurred ([3]; intracameral, doses 10ng to 500ng (10ul)) [ng] | effect on pupil diameter ([3]; intracameral, doses 10ng to 500ng, measured 5 and 10 min after injection) | ED₅₀ ([3]; pupil constriction (miosis), intracameral doses 10ng to 500ng (10ul), flurbiprofen pretreatment) [ng] | dose-response relationship of pupil constriction [4] |
| --- | --- | --- | --- | --- | --- | --- | --- | --- | --- | --- | --- | --- | --- | --- |
| C[N+](C)(C)CCOC(N)=O [Carbachol, carbachol, reference compound] | constricted an expected amount | 3 | 1.5 | decreased significantly and to the same degree in both eyes |  |  |  |  |  |  |  |  |  |  |
| CCCCC[C@H](O)/C=C/[C@H]1OC(O)C[C@H](O)[C@@H]1C/C=C\CCCC(=O)O (some centres unmarked) [TXB2, thromboxane B₂] |  |  |  |  | 5 | 5 | 5.5 | no significant changes in pupil diameter | nor TXB2 administration affected the ability of the pupillary sphincter to contract | no different from those eyes receiving vehicle | 500 | dose-related effect on pupil diameter | 70 | no dose-response relationship was observed |
